Ten molecules from patent US20210161837A1, “METHODS FOR TREATING CANCER WITH RORGAMMA INHIBITORS” (The Regents of the University of California, priority 2016, published 2021) can be followed below.

One test relates to MDA-MB468 cells. As to the kind of experiment: Cell viability (CellTiter-GLO), 4 days, TNBC cells. It is filed as cell-based, human. The procedure: (§1) The “No.” label for each compound corresponds to the “Structure No.” in Table 2 (e.g., “No. 36”=“Structure No. 36” in Table 2). The cell viability curves were measured by CellTiter-GLO.
(§2) For cell viability, cells were seeded in 96-well plates at 1500-2500 cells per well (optimum density for growth) in a total volume of 100 μl media. Serially diluted compounds in 100 μl of media were added to the cells 12 hours later. After 4 days of incubation, Cell-Titer GLO reagents (Promega) were added and luminescence was measured on GLOMAX microplate luminometer (Promega), according to the manufacturer's instructions. All experimental points were set up as sextuplicate as biological replication and the entire experiments were repeated three times. The data are presented as percentage of viable cells with vehicle treated cells set as 100. The estimated in vitro IC50 values were calculated using GraphPad Prism 6 software.

In a further test the test system is HCC70 cells. Put plainly: Cell viability (CellTiter-GLO), 4 days, TNBC cells. It is filed as cell-based, human. The procedure: as §1, §2
The test system of test [1] is prostate cancer C4-2B cells. As to the kind of experiment: Cell viability (Cell-Titer GLO), 4 days, prostate cancer cells. It is filed as cell-based, human. The procedure: The “No.” label for each compound corresponds to the “Structure No.” in Table 2 (e.g., “No. 36”=“Structure No. 36” in Table 2). Experiments were independently performed three times.
as §2, with “growth, depending on the specific cell line)” for “growth)”

In test [2] the test system is gastric cancer KATO III cells. As to the kind of experiment: Cell viability (Cell-Titer GLO), 4 days, gastric cancer cells. It is filed as cell-based, human. As for the experimental part:
Experiments were independently performed three times.
as §2, with “growth, depending on the specific cell line)” for “growth)”, “100.” for “100. The estimated in vitro IC50 values were calculated using GraphPad Prism 6 software.”

Test [3] has as its system SUM159 orthotopic xenograft tumors. As to the kind of experiment: TNBC SUM159 orthotopic xenograft tumor growth in SCID mice. Particulars: 5 mg/kg, i.p., 5 times per week, 45 days. It is filed as in vivo, mouse. As for the experimental part: Orthotopic xenograft tumor models and chemical compound treatments: Four-week-old female SCID C.B17 mice (for TNBC SUM159 cell lines) were purchased from Harlan Inc. For establishing tumors, 2×10^6 cells were suspended in total of 100 μL PBS/Matrigel (1:1) and implanted orthotopically into the 4th inguinal mammary fat pads at both sides. Animal group size of six or more was estimated to have a high statistical power, based on power calculation (www.biomath.info/pgwer/) and 20 previous studies involving the same xenograft models. When the tumor volume was approximately 50 mm^3, the mice were randomized and then treated intraperitoneally (i.p.) with 100 μl of vehicle or RORγ inhibitors F18/No. 37, 5 mg/kg; GSK805, 5 mg/kg; GNE3500, 5 mg/kg. (in a formulation of 15% Cremophor EL, Calbiochem, 82.5% PBS, and 2.5% DMSO) for five times per week. Tumor growth was monitored by calipers with volume calculated using the equation: π/6 (length×width^2). Mouse body weight during the course of the study was also monitored. At the end of the studies, mice were killed and tumors were dissected and weighed.

The subject of the next test is MCF-7-TamR. Put plainly: Growth and survival of tamoxifen-resistant breast cancer cells. It is filed as cell-based, human. Conditions: MCF-7-TamR, 1 μM of 4(OH)-tamoxifen alone.

Turning to `O=C(Cc1ccc([N+](=O)[O-])cc1)Nc1ccc(-c2ccc(C(O)(C(F)(F)F)C(F)(F)F)cc2F)cc1` [F17, N-(2′-fluoro-4′-(1,1,1,3,3,3-hexafluoro-2-hydroxypropan-2-yl)-[1,1′-biphenyl]-4-yl)-2-(4-nitrophenyl)acetamide], the “inhibition of growth and survival” value in the test on MDA-MB468 cells is “strongly inhibited the growth and survival”; in the test with HCC70 cells, “strongly inhibited the growth and survival”; in test [1], “strongly inhibited the growth and survival”.
Regarding `O=C(CCc1ccccc1)Nc1ccc(-c2ccc(C(O)(C(F)(F)F)C(F)(F)F)cc2F)cc1` [F62, N-(2′-fluoro-4′-(1,1,1,3,3,3-hexafluoro-2-hydroxypropan-2-yl)-[1,1′-biphenyl]-4-yl)-3-phenylpropanamide], the “inhibition of growth and survival” value is “strongly inhibited the growth and survival” in the test with MDA-MB468 cells; “strongly inhibited the growth and survival” with HCC70 cells; “strongly inhibited the growth and survival” in test [1].
With `O=C(CCC(F)(F)F)Nc1ccc(-c2ccc(C(O)(C(F)(F)F)C(F)(F)F)cc2F)cc1` [F63, 4,4,4-trifluoro-N-(2′-fluoro-4′-(1,1,1,3,3,3-hexafluoro-2-hydroxypropan-2-yl)-[1,1′-biphenyl]-4-yl)butanamide], the “inhibition of growth and survival” value in the test with MDA-MB468 cells is “strongly inhibited the growth and survival”; in the test on HCC70 cells, “strongly inhibited the growth and survival”; in test [1], “strongly inhibited the growth and survival”.
In the case of `CCCCCCC(=O)Nc1ccc(-c2ccc(C(O)(C(F)(F)F)C(F)(F)F)cc2F)cc1` [F64, N-(2′-fluoro-4′-(1,1,1,3,3,3-hexafluoro-2-hydroxypropan-2-yl)-[1,1′-biphenyl]-4-yl)heptanamide], the “inhibition of growth and survival” value is “strongly inhibited the growth and survival” in the test on MDA-MB468 cells; “strongly inhibited the growth and survival” in the test with HCC70 cells; “strongly inhibited the growth and survival” in test [1].
Turning to `O=C(CCCC1CCCCC1)Nc1ccc(-c2ccc(C(O)(C(F)(F)F)C(F)(F)F)cc2F)cc1` [F65, 4-cyclohexyl-N-(2′-fluoro-4′-(1,1,1,3,3,3-hexafluoro-2-hydroxypropan-2-yl)-[1,1′-biphenyl]-4-yl)butanamide], the “inhibition of growth and survival” value was “strongly inhibited the growth and survival” in the test on MDA-MB468 cells; “strongly inhibited the growth and survival” with HCC70 cells; “strongly inhibited the growth and survival” in test [1].
As to `COC(=O)CCCC(=O)Nc1ccc(-c2ccc(C(O)(C(F)(F)F)C(F)(F)F)cc2F)cc1` [F68, Methyl-5-((2′-fluoro-4′-(1,1,1,3,3,3-hexafluoro-2-hydroxypropan-2-yl)-[1,1′-biphenyl]-4-yl)amino)-5-oxopentanoate], the “inhibition of growth and survival” value was “strongly inhibited the growth and survival” in the test on MDA-MB468 cells; “strongly inhibited the growth and survival” in the test on HCC70 cells; “strongly inhibited the growth and survival” in test [1].
As to `CC(=O)N1CCN(c2ccc(CN3[C@@H](C)CC[C@H](c4ccccc4)S3(=O)=O)c(F)c2)CC1` [GNE3500], in test [2], the “inhibition of growth and survival” value is “strongly inhibited the growth and survival”.
As for `CCS(=O)(=O)c1ccc(CC(=O)Nc2cc(Cl)c(-c3ccccc3OC(F)(F)F)c(Cl)c2)cc1` [GSK805, reference compound], the “orthotopic tumor growth inhibition” value in test [3] is recorded as “Strong tumor growth inhibition”. For the same molecule, the “inhibition of growth and survival” value in test [2] was “strongly inhibited the growth and survival”.
Take `OC(c1ccc(-c2ccc(CN3CCN(Cc4ccncc4)CC3)cc2)c(F)c1)(C(F)(F)F)C(F)(F)F` [SR2211]: in test [2], the “inhibition of growth and survival” value is “strongly inhibited the growth and survival”.
In the case of `CC/C(=C(\c1ccccc1)c1ccc(OCCN(C)C)cc1)c1ccccc1` [tamoxifen, reference compound], the “growth inhibitory effect, tamoxifen alone” value in the test on MCF-7-TamR is “did not show any inhibitory effect”.
